Data set [1] deals with T1, eIF2B(αβγδε)2 decamer (Homo sapiens, UniProt P49770+Q9UI10, Q9UI10:L516A).
T1 construct: gene EIF2B2; recombinant human eIF2Bα2 (pJT075) mixed with eIF2Bβγδε (pJT073 + pJT074 coexpression); heterodecamer; 2,369 unique amino acids; with Translation initiation factor eIF2B subunit alpha; Translation initiation factor eIF2B subunit gamma; Translation initiation factor eIF2B subunit epsilon
As to the kind of experiment: fluorescence polarization, eIF2B titration. In kind it is binding. As to conditions: labelled compound; 2.5 nM FAM-ISRIB; 20 mM HEPES-KOH pH 7.5, 100 mM KCl, 5 mM MgCl2, 1 mM TCEP; 25 °C; ISRIB pocket; read-out: half-maximal effective concentration. (In general: Fluorescence polarisation rises when a labelled molecule tumbles more slowly, as on binding a larger partner.)

The target of data set [2] is T2, eIF2B(αβγδε)2 decamer (Homo sapiens, UniProt P49770+Q9UI10, Q9UI10:F443A).
T2 construct: gene EIF2B2; recombinant human eIF2Bα2 (pJT075) mixed with eIF2Bβγδε (pJT073 + pJT074 coexpression); heterodecamer; 2,369 unique amino acids; with Translation initiation factor eIF2B subunit alpha; Translation initiation factor eIF2B subunit gamma; Translation initiation factor eIF2B subunit epsilon
Description: fluorescence polarization, eIF2B titration. In kind it is binding. The conditions noted are these: labelled compound; 2.5 nM FAM-ISRIB; 20 mM HEPES-KOH pH 7.5, 100 mM KCl, 5 mM MgCl2, 1 mM TCEP; 25 °C; ISRIB pocket; read-out: half-maximal effective concentration.

For data set [3], the target named is T3, eIF2B(αβγδε)2 decamer (Homo sapiens, UniProt P49770+Q9UI10).
T3 construct: gene EIF2B2; recombinant human eIF2Bα2 (pJT075) mixed with eIF2Bβγδε (pJT073 + pJT074 coexpression); heterodecamer; 2,369 unique amino acids; with Translation initiation factor eIF2B subunit alpha; Translation initiation factor eIF2B subunit gamma; Translation initiation factor eIF2B subunit epsilon
Description: fluorescence polarization, eIF2B titration. Format: binding. As to conditions: labelled compound; 2.5 nM FAM-ISRIB; 20 mM HEPES-KOH pH 7.5, 100 mM KCl, 5 mM MgCl2, 1 mM TCEP; 25 °C; ISRIB pocket; read-out: half-maximal effective concentration.

Data set [4] deals with T4, eIF2B(αβγδε)2 decamer (Homo sapiens, UniProt P49770+Q9UI10, Q9UI10:E445A).
T4 construct: gene EIF2B2; recombinant human eIF2Bα2 (pJT075) mixed with eIF2Bβγδε (pJT073 + pJT074 coexpression); heterodecamer; 2,369 unique amino acids; with Translation initiation factor eIF2B subunit alpha; Translation initiation factor eIF2B subunit gamma; Translation initiation factor eIF2B subunit epsilon
As to the kind of experiment: fluorescence polarization, eIF2B titration. Format: binding. As to conditions: labelled compound; 2.5 nM FAM-ISRIB; 20 mM HEPES-KOH pH 7.5, 100 mM KCl, 5 mM MgCl2, 1 mM TCEP; 25 °C; ISRIB pocket; read-out: half-maximal effective concentration.

Data set [5] deals with T3, eIF2B(αβγδε)2 decamer. Description: hydrogen-deuterium exchange mass spectrometry. In kind it is binding. As to conditions: 20 mM HEPES, 200 mM KCl, 5 mM MgCl2, 1 mM TCEP, pH 7.9; ISRIB pocket, groove between eIF2Bβ and eIF2Bδ'; allosteric.
Data set [6] concerns the molecule itself. Description: cryo-EM structure; 20 µM eIF2Bδ^L516A βγδε incubated with 11 µM eIF2Bα2 in 20 mM HEPES-KOH, 200 mM KCl, 5 mM MgCl2, 1 mM TCEP; diluted to 750 nM for grids.
Data set [7] has as its target eIF2Bβγδ^E445Aε tetramer (human, UniProt P49770 2-351; Q9NR50 1-452; Q9UI10 1-523; Q13144 1-721, δE445A). As to the kind of experiment: AUC; sedimentation velocity, 40,000 r.p.m., 20 °C, 20 mM HEPES-KOH pH 7.5, 150 mM KCl, 1 mM TCEP, 5 mM MgCl2; tetramer mixed with eIF2Bα2 (2:1 or 1:1 tetramer:dimer); continuous c(S) distribution. The conditions noted are these: both partners purified.

In data set [8] the target is eIF2Bβγδ^F443Aε tetramer (human, UniProt P49770 2-351; Q9NR50 1-452; Q9UI10 1-523; Q13144 1-721, δF443A). Described as above. The conditions noted are these: both partners purified.

As for FAM-ISRIB, the EC50 in data set [1] amounted to 169 ± 34 nM; in data set [2] it was 50 ± 8 nM; in data set [3] it was 38 ± 2 nM; in data set [4] it was 30 ± 2 nM.

In the case of `O=C(COc1ccc(Cl)c(F)c1)NC12CC(NC(=O)c3cnc(C(F)F)cn3)(C1)C2` [2BAct], the “hydrogen-deuterium exchange mass spectrometry” value in data set [5] is “We also observed protection in peptides at the 2BAct binding site”.

B1: eIF2Bα2 dimer, wild type (complex, human)
chain: DDKELIEYFKSQMKEDPDMASAVAAIRTLLEFLKRDKGETIQGLRANLTSAIETLCGVDSSVAVSSGGELFLRFISLASLEYSDYSKCKKIMIERGELFLRRISLSRNKIADLCHTFIKDGATILTHAYSRVVLRVLEAAVAAKKRFSVYVTESQPDLSGKKMAKALCHLNVPVTVVLDAAVGYIMEKADLVIVGAEGVVENGGIINKIGTNQMAVCAKAQNKPFYVVAESFKFVRLFPLNQQDVPDKFKYKADTLKVAQTGQDLKEEHPWVDYTAPSLITLLFTDLGVLTPSAVSDELIKLYL
notes: also called eIFBα2
Turning to B1, the binding result in data set [6], in data set [7] and in data set [8] was “binds” throughout.

(Values after PMC10972756, “A helical fulcrum in eIF2B coordinates allosteric regulation of stress signaling” (Nature Chemical Biology, 2023).)
